Several values for one entry are separate records, joined by “and”; a condition that tells them apart may be missing. Equal entries are not always repeated. Entries after “also recorded” stand apart in the source; their conditions may differ. Where two headings read alike, the source gives them in different places.
How the values were obtained:
neuroblastoma cell lines = test: In vitro growth inhibition (RT-CES), panel of neuroblastoma cell lines; type: cell-based, human; conditions: 333 nM, 72 hours; for Inhibition of growth, cell lines with ALK amplification or mutations: compared with normal copy number wild type ALK lines
Text: A quantitative assay to evaluate growth inhibition in a multi-well was used in a parallel format to screen for cellular cytotoxicity. […] For FIG. 7, the biochemical consequences of ALK activation and downstream signaling pathways were studied in ALK-mutant lines.
(§1) To verify cell line integrity, all lines were routinely genotyped (AmpFLSTR® Identifiler® kit; Applied Biosystems) and mycoplasma tested.
It has been shown that mRNA knockdown of ALK in neuroblastoma cell lines with mutation or amplification is cytotoxic, and thus ALK inhibition might offer a tractable therapeutic target.

NBEBc1 (WT) xenografts = conditions: 100 mg/kg/day oral gavage, 4 weeks
[1] = system: SHSY5Y (F1174L) xenografts; conditions: 100 mg/kg/day oral gavage, 4 weeks; end point tumor volume ≥1.5 cm^3 or treatment related death
pSTAT3, pAKT, and pERK = test: In vitro phosphoprotein detection (immunoblot), downstream signaling; conditions: NB1 (wild type amplified)
SY5Y cells [2] = test: Antibody-dependent cell-mediated cytotoxicity assay, SY5Y targets; type: cell-based, human; conditions: SY5Y pre-incubated 48 hours with crizotinib, then ALK antibody, mean
Experimental: The Cyto Tox 96 Non-Radioactive Cytotoxicity Assay (Promega) was used to assess antibody-dependent cell mediated cytotoxicity. […] Non-adherent peripheral blood lymphocytes were then replated in complete RPMI containing 1000 IU/ml rhIL-2 (Chiron) and incubated overnight. The following day, effector cells were collected and washed. Target NB1 or SY5Y cells that had been grown on T75 flasks until 70-80% confluency were also harvested and washed. […] Control wells were plated according to the manufacturer's specifications. After a 4-hour incubation at 37° C., cell viability was assessed by an enzymatic assay allowing for the quantification of lactate dehydrogenase which is released upon cell lysis. The % cytotoxicity was calculated as follows: [(Experimental−Effector Spontaneous−Target Spontaneous)/(Target Maximum−Target Spontaneous)]×100. […] Results shown are representative of three independent experiments, and quoted as mean±standard deviation.

NBSD (F1174L) xenografts = conditions: 100 mg/kg/day oral gavage, 4 weeks
NB1 (WT amplification) = conditions: NB1, dose-dependent
Text: as §1

SH-SY5Y (F1174L) = conditions: did not occur until this dose
Text: as §1

NB1643 (R1275Q) = conditions: NB1643, dose-dependent
Text: as §1

SY5Y cells [3] = test: Propidium iodide staining, cell cycle analysis, SY5Y; type: cell-based, human; conditions: 1000 nM crizotinib, 10 μg/ml antibody, or both, mean
SKNAS (WT) xenografts = conditions: 100 mg/kg/day oral gavage, 4 weeks

## C[C@@H](Oc1cc(-c2cnn(C3CCNCC3)c2)cnc1N)c1c(Cl)ccc(F)c1Cl [PF-02341066, crizotinib]
Neuroblastoma cell lines
  Inhibition of growth, cell lines with normal copy number WT ALK: No cell lines with normal copy number WT ALK showed significant inhibition
  Sensitivity of R1275Q cell lines compared with F1174L cell lines: more sensitive
  Inhibition of growth, cell lines with ALK amplification or mutations: significantly superior inhibition of growth
Neuroblastoma cell lines; listed as PF2341066
  Inhibition of growth, cell lines with ALK amplification or mutations: sensitive; also recorded: significantly more sensitive
  Sensitivity of R1275Q cell lines compared with F1174L cell lines: R1275Q mutations were more sensitive than F1174L mutations; also recorded: significantly more sensitive
NBEBc1 (WT) xenografts
  Prolongation of survival: 5.1 days
[1]
  Prolongation of survival: 7.7 days
pSTAT3, pAKT, and pERK
  Abrogation of phosphorylation of STAT3, AKT and ERK: substantial abrogation
SY5Y cells [2]; effector:target 25:1
  ADCC % cytotoxicity: 33.7±2.5%
SY5Y cells [2]; effector:target 50:1
  ADCC % cytotoxicity: 55.7±9.3%
NBSD (F1174L) xenografts
  Prolongation of survival: 3.7 days
NB1 (WT amplification)
  Dose at which inhibition of proliferation occurred: 33 to 100 nM
SH-SY5Y (F1174L)
  Dose at which inhibition of proliferation occurred: 1000 nM
NB1643 (R1275Q)
  Dose at which inhibition of proliferation occurred: 33 to 100 nM and 33 nM
SY5Y cells [3]
  sub G0 fraction: increased the sub G0 fraction, but to a smaller extent than seen with dual treatment
SKNAS (WT) xenografts
  Prolongation of survival / days to reach tumor volume of 1.5 cm^3: non-significant difference in days to reach a tumor volume of 1.5 cm^3
SKNAS (WT) xenografts; listed as PF-2341066
  Prolongation of survival / days to reach tumor volume of 1.5 cm^3: neither a delay in tumor growth (P=0.87) or prolongation of survival

Reference: patent US10722578B2, “Methods and compositions for treating neuroblastoma” (The Children's Hospital of Philadelphia, priority 2008, dated 2020)
